From ChEMBL document CHEMBL3352684, “Discovery of MK-3697: a selective orexin 2 receptor antagonist (2-SORA) for the treatment of insomnia” (Bioorg Med Chem Lett, 2014) come the findings set out here.

Data set [1] can be described thus: Half life in dog at 1 mg/kg, iv. The format is ADME, organism-based, Canis lupus familiaris. The arrangement: dose 1 mg/kg, route intravenous. The conditions noted are these: in vivo.
The nature of data set [2]: AUC (0 to infinity) in dog at 3 mg/kg, po. The format is ADME, organism-based, Canis lupus familiaris. Details: time infinity, dose 3 mg/kg, route oral. The conditions noted are these: plasma.
Data set [3] is filed under the species Rattus norvegicus. The data set can be described thus: Ex vivo receptor occupancy at human OX2R expressed in transgenic rat at plasma concentration of 1.06 uM. The format is functional.
Data set [4] deals with T1, Orexin/Hypocretin receptor type 1 (Mus musculus) (UniProt P58307).
T1 sequence (whole entry): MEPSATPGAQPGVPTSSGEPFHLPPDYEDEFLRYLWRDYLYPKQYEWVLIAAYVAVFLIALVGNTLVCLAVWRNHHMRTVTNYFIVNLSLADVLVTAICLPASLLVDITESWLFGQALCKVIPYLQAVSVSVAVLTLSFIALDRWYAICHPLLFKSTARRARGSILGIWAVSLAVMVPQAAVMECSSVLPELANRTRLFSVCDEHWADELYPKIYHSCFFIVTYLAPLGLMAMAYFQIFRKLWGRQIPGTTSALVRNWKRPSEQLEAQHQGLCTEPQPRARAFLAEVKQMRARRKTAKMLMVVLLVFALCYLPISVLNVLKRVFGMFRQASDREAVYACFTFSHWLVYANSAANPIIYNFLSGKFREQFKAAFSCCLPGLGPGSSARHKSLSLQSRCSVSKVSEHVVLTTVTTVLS
The data set can be described thus: Antagonist activity at mouse OX1R by FLIPR assay.

The nature of data set [5]: Tmax in rat at 5 mg/kg, po. The format is ADME, organism-based. Details: dose 5 mg/kg, route oral. The conditions noted are these: in vivo.
The target of the next data set is Cytochrome P450 2C9 (Homo sapiens, UniProt P11712). The data set can be described thus: Reversible inhibition of CYP2C9 (unknown origin). The format is ADME.
Cytochrome P450 2C9, sequence (P11712 whole entry): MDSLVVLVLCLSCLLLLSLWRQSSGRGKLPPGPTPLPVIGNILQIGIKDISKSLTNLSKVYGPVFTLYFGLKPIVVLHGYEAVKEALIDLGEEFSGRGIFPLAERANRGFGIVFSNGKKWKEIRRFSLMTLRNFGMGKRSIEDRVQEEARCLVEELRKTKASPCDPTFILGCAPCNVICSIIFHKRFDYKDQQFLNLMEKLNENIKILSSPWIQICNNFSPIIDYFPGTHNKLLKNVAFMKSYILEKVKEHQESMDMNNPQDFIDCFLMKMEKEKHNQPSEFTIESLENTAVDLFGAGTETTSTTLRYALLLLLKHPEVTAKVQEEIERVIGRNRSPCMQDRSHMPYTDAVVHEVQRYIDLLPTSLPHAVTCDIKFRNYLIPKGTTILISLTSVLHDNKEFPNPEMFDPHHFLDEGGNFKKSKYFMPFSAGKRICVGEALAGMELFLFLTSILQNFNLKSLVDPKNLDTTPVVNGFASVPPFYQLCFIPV
The next data set relates to Mus musculus. The data set can be described thus: Increase in slow wave sleep in mouse at 100 mg/kg, po after 2 hrs. The format is functional, organism-based. Details: dose 100 mg/kg.
Data set [6] is described as follows: Plasma protein binding in human. The conditions noted are these: read-out: PPB (converted). The format is ADME, cell-free.
Data set [7] is described as follows: Cmax in rat at 5 mg/kg, po. The format is ADME, organism-based. Details: dose 5 mg/kg, route oral. The conditions noted are these: in vivo.
Data set [8] addresses T2, Nuclear receptor subfamily 1 group I member 2 (Homo sapiens, UniProt O75469).
T2 sequence (O75469 whole entry): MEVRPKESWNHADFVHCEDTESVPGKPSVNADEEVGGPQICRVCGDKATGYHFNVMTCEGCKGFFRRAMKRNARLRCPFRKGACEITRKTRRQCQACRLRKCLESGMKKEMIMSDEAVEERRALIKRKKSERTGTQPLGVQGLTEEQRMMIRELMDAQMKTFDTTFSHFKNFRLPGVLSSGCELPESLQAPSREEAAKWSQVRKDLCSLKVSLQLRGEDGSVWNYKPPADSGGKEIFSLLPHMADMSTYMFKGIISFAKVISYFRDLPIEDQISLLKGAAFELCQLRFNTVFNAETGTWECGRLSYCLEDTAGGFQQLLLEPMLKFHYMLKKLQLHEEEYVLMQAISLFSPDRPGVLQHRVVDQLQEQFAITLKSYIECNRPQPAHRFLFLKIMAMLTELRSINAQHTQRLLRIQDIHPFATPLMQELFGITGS
The data set can be described thus: Activation of PXR (unknown origin).

Data set [9] can be described thus: AUC in dog at 3 mg/kg, po. The format is ADME, organism-based, Canis lupus familiaris. The arrangement: dose 3 mg/kg, route oral. The conditions noted are these: plasma.
Data set [10] concerns Canis familiaris. The data set can be described thus: Reduction in active wake sleep in dog at 3 mg/kg, po after 2 hrs. The arrangement: dose 3 mg/kg. The format is functional, organism-based. The conditions noted are these: Canis lupus familiaris.
For the next data set, the target named is T3, Orexin receptor type 2 (Homo sapiens, UniProt O43614).
T3 sequence (O43614 whole entry): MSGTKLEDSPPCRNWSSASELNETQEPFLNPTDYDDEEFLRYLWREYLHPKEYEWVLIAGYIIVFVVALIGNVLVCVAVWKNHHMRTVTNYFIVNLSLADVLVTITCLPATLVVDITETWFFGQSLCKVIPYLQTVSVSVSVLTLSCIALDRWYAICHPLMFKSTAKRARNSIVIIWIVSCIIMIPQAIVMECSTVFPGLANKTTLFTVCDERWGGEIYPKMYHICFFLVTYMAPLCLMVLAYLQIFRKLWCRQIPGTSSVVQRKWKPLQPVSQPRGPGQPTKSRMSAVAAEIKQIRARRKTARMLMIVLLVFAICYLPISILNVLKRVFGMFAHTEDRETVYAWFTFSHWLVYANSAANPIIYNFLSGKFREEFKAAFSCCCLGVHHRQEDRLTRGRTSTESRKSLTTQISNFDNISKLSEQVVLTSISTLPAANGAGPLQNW
The data set can be described thus: Displacement of (S)-N-(2-(1H-pyrrol-1-yl)phenyl)-1-(2-([3H]-1-methyl-1H-benzo[d]imidazol-2-ylthio)acetyl)pyrrolidine-2-carboxamide from human OX2R expressed in CHO cells after 3 hrs by topcount analysis. The format is cell-based.

The test system of data set [11] is Rattus norvegicus. The data set can be described thus: Increase in slow wave sleep in Sprague-Dawley rat at 15 mg/kg, po after 2 hrs. The format is functional, organism-based. The arrangement: dose 15 mg/kg.
Data set [12] is described as follows: AUC in Sprague-Dawley rat at 15 mg/kg, po. The following applies: plasma. The arrangement: dose 15 mg/kg, route oral. The format is ADME, organism-based.
The subject of data set [13] is Canis familiaris. The data set can be described thus: Increase in slow wave sleep in dog at 3 mg/kg, po after 2 hrs. The format is functional, organism-based. The following applies: Canis lupus familiaris. Details: dose 3 mg/kg.
The target in data set [14] is T4, Orexin/Hypocretin receptor type 1 (Rattus norvegicus) (UniProt P56718).
T4 sequence (whole entry): T1 sequence (whole entry) with Q116H, H205R, I221F, A232G, R245P, G383S
The data set can be described thus: Antagonist activity at Sprague-Dawley rat OX1R by FLIPR assay.

Data set [15] addresses T5, Orexin receptor type 2 (Mus musculus) (UniProt P58308).
T5 sequence (whole entry): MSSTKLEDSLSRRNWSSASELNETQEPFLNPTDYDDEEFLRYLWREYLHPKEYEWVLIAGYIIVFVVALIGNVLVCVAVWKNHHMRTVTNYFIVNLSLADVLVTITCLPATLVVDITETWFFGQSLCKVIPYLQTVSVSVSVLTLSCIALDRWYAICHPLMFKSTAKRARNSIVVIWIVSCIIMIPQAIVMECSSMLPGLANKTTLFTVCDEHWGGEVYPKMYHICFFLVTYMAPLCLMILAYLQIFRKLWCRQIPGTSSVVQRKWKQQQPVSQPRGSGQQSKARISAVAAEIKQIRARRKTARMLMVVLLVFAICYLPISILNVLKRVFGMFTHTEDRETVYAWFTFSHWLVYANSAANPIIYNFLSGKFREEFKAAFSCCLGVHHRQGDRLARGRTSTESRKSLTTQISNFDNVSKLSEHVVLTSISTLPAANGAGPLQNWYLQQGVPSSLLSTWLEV
The data set can be described thus: Antagonist activity at mouse OX2R by FLIPR assay.

The nature of data set [16]: Lipophilicity, log D of the compound. The format is physicochemical. The following applies: octanol/water.
The target of data set [17] is T2, Nuclear receptor subfamily 1 group I member 2. The data set can be described thus: Activation of PXR (unknown origin) at 30 uM relative to rifampicin.

Numbering of substitutions follows the chain as printed. Active and inactive are the calls of the source. The calls are words filed in the database; no cut-off is given here. Where only a bound is given, the exact number is not on record here.

What is called half-life is how long it takes for the measured level to halve. A high value points to slow loss. A word on the AUC(0-inf): it is total exposure, with the tail of the curve extrapolated. A word on the Tmax: it is the time from dosing to the highest level. A word on the IC50: it is the concentration needed to halve the response being measured. A low value points to greater potency in that assay. By Cmax is commonly meant the highest concentration seen after dosing. A word on the EC50: it is the concentration at which the effect is half-maximal. A lower EC50 goes with higher potency in that assay. For orientation: AUC means the area under the concentration-time curve, a measure of exposure. As a reminder, the Ki is a dissociation constant, usually derived from enzyme kinetics or from competition with a known ligand. One may read the logD as the decadic logarithm of the distribution of all forms, ionised or not, between an organic phase and buffer at a given pH. Higher therefore signals a more lipophilic compound. The compound `COc1ccc(CNC(=O)c2cc(-c3cncc(C)c3)ncc2-c2nccs2)nc1OC` gave a half-life in data set [1] of 72 min. Moreover, the AUC(0-inf) in data set [2] was 7.5 µM·h. In the data set listed under Rattus norvegicus [3], the Occ is 90%. Also, the INH in [4] came to 27.2 µM; in data set [14], 36.4 µM; in data set [15], 12 nM. Also, the Tmax in [5] amounted to 18 min. In addition, the IC50 against Cytochrome P450 2C9 was > 50 µM. The outcome with Mus musculus, in the data set with Canis familiaris [10], with Rattus norvegicus [11] and in the data set with Canis familiaris [13] was Active. In addition, the fraction unbound in [6] was 0.04. This compound gave a Cmax in data set [7] of 2100 nM. The EC50 in [8] was > 30 µM. Moreover, the figures for the AUC in data set [9] and in [12] were 9 µM·h and 17.2 µM·h, respectively. This compound also returned a Ki at Orexin receptor type 2 of 1.1 nM. In data set [16], the logD was determined as 1.9. This compound also showed an Activity in data set [17] of 16%.
